The conditions of series [1]: cited from earlier work; for solubility: water at 37° C.
Series [2] can be described thus: cooling effect: instant fall of temperature when powder is added to water. It is filed as physicochemical. The following applies: 150 g of powder added to 50 ml of water at 37° C. How it is done: A suitable monosaccharide polyol is preferably selected from the group consisting of xylitol, erythritol, sorbitol or a combination thereof. […] (Instant fall of temperature when 150 g of powder are added to 50 ml of water at 37° C.).

Consider `OC[C@@H](O)[C@@H](O)CO` [Erythritol], for which the “water solubility compared with other polyols” value in series [1] (anhydride crystals) is given as “less water soluble”.
As to `OC[C@@H](O)[C@@H](O[C@H]1O[C@H](CO)[C@@H](O)[C@H](O)[C@H]1O)[C@H](O)[C@@H](O)CO` [maltitol, reference compound], the solubility result in series [1] is “less than 205 g/100 g”.
Consider `OC[C@@H](O)[C@@H](O)[C@H](O)[C@@H](O)CO` [sorbitol], for which the “measured cooling effect (instant fall of temperature)” value in series [2] is “about −22 °C”. Besides, in series [1], the solubility was 330–340 g/100 g.
Turning to `OC[C@H]1O[C@@](CO)(O[C@H]2O[C@H](CO)[C@@H](O)[C@H](O)[C@H]2O)[C@@H](O)[C@@H]1O` [sucrose, reference compound], the solubility entry in series [1] is “under 230 g/100 g”.
With `OC[C@@H](O)[C@H](O)[C@@H](O)CO` [xylitol], the “measured cooling effect (instant fall of temperature)” value in series [2] is “about −20 °C”. In addition, the solubility in series [1] is 250–260 g/100 g.

These data come from patent US7214396B2, “Confectionery product containing functional ingredients and method of making and using” (Nestec S.A., priority 2000, dated 2007).
